Assay results from patent EP1194447B1, “NOVEL POTASSIUM CHANNELS AND GENES ENCODING THESE POTASSIUM CHANNELS” (NEUROSEARCH A/S, priority 1999, dated 2000).
Each block holds one molecule with its values, some of them ahead of it.

Legend:
[1] = target: T1, KCNQ5 (Homo sapiens, UniProt Q9NR82); assay: Two-electrode voltage clamp of KCNQ5 homomers expressed in Xenopus oocytes; assay type: cell-based; conditions: for IC50: extracellular application, Xenopus oocytes, from plotted fit curves (Fig. 5A), means ± SEM of 4 to 12 measurements, read-out: IC50, inhibition of KCNQ5 homomers; for effect on KCNQ5 currents: 10 µM, oocytes injected with KCNQ5 alone (no M1 receptor)
T1 construct: expressed in transfected cells; host or cells: Xenopus oocytes injected with cRNA transcribed from the KCNQ5-containing pTLN vector
T1 sequence (Q9NR82 36-932 limits assumed): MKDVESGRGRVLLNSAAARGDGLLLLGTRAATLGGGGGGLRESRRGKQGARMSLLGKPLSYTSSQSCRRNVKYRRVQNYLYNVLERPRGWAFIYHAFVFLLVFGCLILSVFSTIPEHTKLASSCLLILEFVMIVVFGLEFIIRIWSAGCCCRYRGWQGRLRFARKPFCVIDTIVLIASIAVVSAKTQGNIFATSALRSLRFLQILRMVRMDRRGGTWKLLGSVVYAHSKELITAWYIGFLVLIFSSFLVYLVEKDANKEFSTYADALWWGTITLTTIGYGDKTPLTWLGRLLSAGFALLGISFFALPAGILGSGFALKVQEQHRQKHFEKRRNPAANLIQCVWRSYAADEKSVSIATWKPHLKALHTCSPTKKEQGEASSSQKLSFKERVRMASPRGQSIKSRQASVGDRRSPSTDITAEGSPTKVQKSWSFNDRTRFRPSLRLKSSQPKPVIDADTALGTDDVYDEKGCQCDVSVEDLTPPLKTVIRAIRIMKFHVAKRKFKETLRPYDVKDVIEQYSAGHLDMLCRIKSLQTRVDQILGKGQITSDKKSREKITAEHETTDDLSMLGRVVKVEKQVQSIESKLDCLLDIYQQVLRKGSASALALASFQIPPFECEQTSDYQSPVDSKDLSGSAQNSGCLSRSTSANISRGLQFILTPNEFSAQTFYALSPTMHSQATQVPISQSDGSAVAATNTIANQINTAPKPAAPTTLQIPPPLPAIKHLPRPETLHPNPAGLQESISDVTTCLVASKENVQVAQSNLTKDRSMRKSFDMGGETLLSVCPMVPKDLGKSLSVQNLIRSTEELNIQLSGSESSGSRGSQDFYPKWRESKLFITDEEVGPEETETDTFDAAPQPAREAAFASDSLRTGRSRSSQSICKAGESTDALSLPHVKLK
Description: Two-electrode voltage-clamp current traces from a Xenopus oocyte injected with KCNQ5 cRNA. […] Starting from a holding potential of -80 mV cells were clamped for 2 seconds to voltages between -80 and +40 mV, in +10 mV steps, followed by a constant test pulse to -30 mV; • Figs. 4A-G show the electrophysiological properties of KCNQ5. Both the splice variant I (found in brain) and splice variant III (found in muscle) were expressed in Xenopus oocytes and examined by two-electrode voltage clamping. Both variants activate slowly upon depolarisation, but form I (4A) initially activates slower than the muscle form III (4B). Starting from a holding potential of -80 mV, the voltage was stepped for 0.8 seconds to values between -100 and + 40 mV in steps of 10 mV, followed by a voltage step to -30 mV (see inset, panel A). Channel activation by depolarization was fitted (for 2 sec. steps) by a sum of three exponential functions. For a step to +20 mV, the rate constants were ô1 = 37. 2 ± 2.2 ms, ô2 = 246 ± 17 ms, and ô3 = 1112 ± 91 ms for splice variant I, while these constants were ô1 = 24.5 ± 0.8 ms, ô2 = 163 ± 6 ms, and ô3 = 1690 ± 46 ms (± SEM, n=16). This difference in kinetics also results in different curves when a typical M-current protocol is used (4C, variant I; 4D, variant III). Variant I induces currents that kinetically resemble M-currents. In this protocol, the membrane voltage is clamped for 1 second to voltages between -30 and -90 mV in steps of -10 mV, from a holding potential of -30 mV. This was followed by a step to -30 mV (panel C, inset). (4E, 4F), apparent open probabilities of variants I (4E) and variant III (4F) as a function of voltage obtained from tail current analysis as described in Methods. Mean values obtained from 12 oocytes are shown. Fitting a Boltzmann equation yielded V½ = -46 ± 1 mV and an apparent gating charge of z = 2.8 ± 0.1 for isoform I, and V½ = -48 ± 1 mV and an apparent gating charge of z = 2.5 ± 0.1 for isoform III. For this fit, values at potentials more positive than +10 mV were excluded, as these are probably affected by a second (inactivation) gating process which leads to a decrease of apparent Popen at more positive potentials. (4G), ion selectivity of KCNQ5 currents (variant I). Extracellular sodium was replaced by equimolar amounts of potassium. The reversal potential is shown as a function of the potassium concentration. […] Data are from 10 oocytes from 2 different batches; • Figs. 5A-C show the pharmacology of KCNQ5 and KCNQ3/5 heteromers. (5A) Inhibition of KCNQ5 homomers by extracellular linopirdine (down triangles), XE991 (up triangles) and TEA (squares). […] (5B) Niflumic acid alters the voltage dependence of the apparent popen. In the presence of 500 µM niflumic acid (open circles), the voltage dependence is shifted about 20 mV towards negative potentials. (5C) TEA sensitivity is altered in KCNQ3/5 heteromers. Coexpression of KCNQ5 and KCNQ3 (1:1) (diamonds) increased the IC50 value to 200 mM, coexpression with the KCNQ3 (T323Y) mutant (circles) decreased the IC50 to ~ 30 mM. […] The pulse protocol is shown in the inset of panel b. No effect of 10 µM muscarine or oxotremorine methiodide was found in oocytes injected with KCNQ5 alone; and • Figs. 7A-C show the interactions between KCNQ2 and KCNQ5 (7A, 7B) and KCNQ3 and KCNQ5 (7C): • (7A) currents at the end of a two second pulse to 0 mV from a holding potential of -80 mV of oocytes injected with different combinations of KCNQ cRNAs (always 10 ng total amount of RNA). The current amplitude elicited by co-injecting KCNQ2 and KCNQ5 could be explained by a linear superposition of currents. Co-injection of KCNQ5 with the dominant negative mutant KCNQ2(G279S) or of KCNQ2 with the equivalent mutant KCNQ5(G278S) lead to a roughly 50% reduction in current amplitude, which is consistent with a lack of interaction since only 50% of WT cRNA was injected; • (7B) normalized current traces of experiments used for panel (A). […]

[2] = target: KCNQ2/KCNQ3 channels (Homo sapiens, UniProt O43525+O43526); conditions: 200 µM; cited from earlier work
Chain of KCNQ2/KCNQ3 channels (O43526 whole entry): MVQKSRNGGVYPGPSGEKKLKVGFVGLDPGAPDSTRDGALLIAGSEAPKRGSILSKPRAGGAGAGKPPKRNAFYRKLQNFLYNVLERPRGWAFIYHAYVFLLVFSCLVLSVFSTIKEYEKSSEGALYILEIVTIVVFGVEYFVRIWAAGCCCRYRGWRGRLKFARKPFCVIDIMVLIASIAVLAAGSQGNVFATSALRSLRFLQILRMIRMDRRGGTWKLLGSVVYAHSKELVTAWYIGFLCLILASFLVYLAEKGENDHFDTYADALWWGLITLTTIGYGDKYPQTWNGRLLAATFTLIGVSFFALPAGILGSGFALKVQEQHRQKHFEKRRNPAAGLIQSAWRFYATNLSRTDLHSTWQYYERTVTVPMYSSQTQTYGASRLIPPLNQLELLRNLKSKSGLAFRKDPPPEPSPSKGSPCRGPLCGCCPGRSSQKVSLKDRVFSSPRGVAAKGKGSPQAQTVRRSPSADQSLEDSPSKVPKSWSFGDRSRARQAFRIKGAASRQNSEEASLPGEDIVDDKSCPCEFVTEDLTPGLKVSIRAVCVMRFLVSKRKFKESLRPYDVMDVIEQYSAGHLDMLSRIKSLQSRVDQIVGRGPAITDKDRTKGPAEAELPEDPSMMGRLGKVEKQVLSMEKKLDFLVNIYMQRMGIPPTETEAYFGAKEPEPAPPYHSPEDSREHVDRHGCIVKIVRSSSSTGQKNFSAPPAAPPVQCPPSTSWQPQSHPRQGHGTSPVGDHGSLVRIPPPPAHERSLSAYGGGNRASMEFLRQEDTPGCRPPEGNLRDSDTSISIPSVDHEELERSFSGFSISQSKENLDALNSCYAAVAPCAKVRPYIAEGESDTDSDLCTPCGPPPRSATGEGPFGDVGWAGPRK
Chain of KCNQ2/KCNQ3 channels (O43525 whole entry): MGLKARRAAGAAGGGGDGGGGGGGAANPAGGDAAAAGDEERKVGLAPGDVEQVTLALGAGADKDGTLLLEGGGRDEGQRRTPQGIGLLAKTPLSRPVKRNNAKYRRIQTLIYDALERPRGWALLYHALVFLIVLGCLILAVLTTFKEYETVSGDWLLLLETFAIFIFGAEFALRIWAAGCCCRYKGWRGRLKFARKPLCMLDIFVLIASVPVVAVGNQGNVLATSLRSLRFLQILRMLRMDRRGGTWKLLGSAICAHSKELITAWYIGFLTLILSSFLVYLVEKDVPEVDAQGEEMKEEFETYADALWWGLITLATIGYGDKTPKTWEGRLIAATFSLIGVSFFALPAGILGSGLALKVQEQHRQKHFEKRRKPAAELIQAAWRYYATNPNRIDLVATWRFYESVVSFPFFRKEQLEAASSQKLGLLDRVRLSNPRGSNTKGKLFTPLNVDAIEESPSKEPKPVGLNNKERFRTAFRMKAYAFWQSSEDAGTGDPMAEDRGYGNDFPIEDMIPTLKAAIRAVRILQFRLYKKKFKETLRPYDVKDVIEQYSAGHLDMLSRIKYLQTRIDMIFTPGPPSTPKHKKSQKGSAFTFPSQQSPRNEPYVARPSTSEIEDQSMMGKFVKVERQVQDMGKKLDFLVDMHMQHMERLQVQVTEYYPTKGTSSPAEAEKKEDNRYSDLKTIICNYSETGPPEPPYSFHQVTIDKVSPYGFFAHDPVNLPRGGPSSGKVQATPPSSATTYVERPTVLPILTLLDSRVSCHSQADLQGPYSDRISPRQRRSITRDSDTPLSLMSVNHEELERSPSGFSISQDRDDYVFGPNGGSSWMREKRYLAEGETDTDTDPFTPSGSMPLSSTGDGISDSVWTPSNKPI

[3] = target: T2, KCNQ5 coexpressed with KCNQ3 (T323Y) mutant (Homo sapiens, UniProt O43525+Q9NR82, T323Y); assay: Two-electrode voltage clamp of KCNQ5 coexpressed with the KCNQ3 (T323Y) mutant in Xenopus oocytes; assay type: cell-based; conditions: coexpression of KCNQ5 with the KCNQ3 (T323Y) mutant; Fig. 5C; read-out: IC50 (TEA sensitivity)
T2 construct: expressed in transfected cells; host or cells: Xenopus oocytes co-injected with cRNAs
T2 sequence (Q9NR82 36-932 limits assumed): as the sequence (Q9NR82 36-932 limits assumed) above
T2 sequence (O43525 whole entry T323Y): as the sequence (O43525 whole entry) above, with T323Y counted along it
Description: Two-electrode voltage-clamp current traces from a Xenopus oocyte injected with KCNQ5 cRNA. […] Starting from a holding potential of -80 mV cells were clamped for 2 seconds to voltages between -80 and +40 mV, in +10 mV steps, followed by a constant test pulse to -30 mV; • Figs. 4A-G show the electrophysiological properties of KCNQ5. Both the splice variant I (found in brain) and splice variant III (found in muscle) were expressed in Xenopus oocytes and examined by two-electrode voltage clamping. Both variants activate slowly upon depolarisation, but form I (4A) initially activates slower than the muscle form III (4B). Starting from a holding potential of -80 mV, the voltage was stepped for 0.8 seconds to values between -100 and + 40 mV in steps of 10 mV, followed by a voltage step to -30 mV (see inset, panel A). Channel activation by depolarization was fitted (for 2 sec. steps) by a sum of three exponential functions. For a step to +20 mV, the rate constants were ô1 = 37. 2 ± 2.2 ms, ô2 = 246 ± 17 ms, and ô3 = 1112 ± 91 ms for splice variant I, while these constants were ô1 = 24.5 ± 0.8 ms, ô2 = 163 ± 6 ms, and ô3 = 1690 ± 46 ms (± SEM, n=16). This difference in kinetics also results in different curves when a typical M-current protocol is used (4C, variant I; 4D, variant III). Variant I induces currents that kinetically resemble M-currents. […]

[4] = test system: KCNQ5 co-expressed with M1 receptors; assay: KCNQ5 currents in Xenopus oocytes co-expressing M1 receptors (two-electrode voltage clamp); assay type: cell-based, human; conditions: 10 µM muscarine, 3 minutes after applying; Fig. 6
Description: Two-electrode voltage-clamp current traces from a Xenopus oocyte injected with KCNQ5 cRNA. […] Starting from a holding potential of -80 mV cells were clamped for 2 seconds to voltages between -80 and +40 mV, in +10 mV steps, followed by a constant test pulse to -30 mV; • Figs. 4A-G show the electrophysiological properties of KCNQ5. […] Starting from a holding potential of -80 mV, the voltage was stepped for 0.8 seconds to values between -100 and + 40 mV in steps of 10 mV, followed by a voltage step to -30 mV (see inset, panel A). Channel activation by depolarization was fitted (for 2 sec. steps) by a sum of three exponential functions. For a step to +20 mV, the rate constants were ô1 = 37. […] In this protocol, the membrane voltage is clamped for 1 second to voltages between -30 and -90 mV in steps of -10 mV, from a holding potential of -30 mV. This was followed by a step to -30 mV (panel C, inset). (4E, 4F), apparent open probabilities of variants I (4E) and variant III (4F) as a function of voltage obtained from tail current analysis as described in Methods. Mean values obtained from 12 oocytes are shown. […] For this fit, values at potentials more positive than +10 mV were excluded, as these are probably affected by a second (inactivation) gating process which leads to a decrease of apparent Popen at more positive potentials. (4G), ion selectivity of KCNQ5 currents (variant I). […]

inhibition at 200 µM ([1]; 200 µM Linopirdine in ND98): ~80%
IC50 [1]: 0.051 ± 0.005 mM
Compound: O=C1N(c2ccccc2)c2ccccc2C1(Cc1ccncc1)Cc1ccncc1 [Linopirdine, 1,3-dihydro-1-phenyl-3,3-bis-(4-pyridylmethyl)-2H-indol-2-one]
inhibition of KCNQ2/KCNQ3 channels [2]: nearly completely inhibits

Compound: C[N+](C)(C)CC#CCN1CCCC1=O [oxotremorine methiodide]
effect on KCNQ5 currents [1]: No effect

Compound: CC[N+](CC)(CC)CC [TEA]
IC50 [1]: 71 ± 17 mM
IC50 [3]: ~30 mM

Compound: [Ba+2] [Ba^++]
inhibition of KCNQ5 currents ([1]; 5 mM Ba++): more than 80%

shift of the voltage dependence of the apparent popen towards negative potentials ([1]; 500 µM niflumic acid, Fig. 5B): about 20 mV
Compound: O=C(O)c1cccnc1Nc1cccc(C(F)(F)F)c1 [Niflumic acid]

Compound: C[C@@H]1O[C@H](C[N+](C)(C)C)C[C@H]1O [muscarine]
effect on KCNQ5 currents [1]: No effect
effect on KCNQ5 currents by stimulating co-expressed M1 receptors [4]: inhibition of KCNQ5 currents
